Reference: patent US11896706B2, “Composition for preventing hair loss or promoting hair growth, comprising, as active ingredient, mixed extract of cucumber, eggplant and snail extracts as active ingredient” (OGADAL INC., priority 2020, dated 2024)
Marks after values point to notes of the source that are not given here.

How the values were obtained:
[1] = test system: keratinocyte growth factor (KGF); assay: RT-PCR expression of hair-related gene KGF in dermal papilla cells; format: cell-based; conditions: 1 μg/mL minoxidil, 18 hours
Experimental: (§1) RT-PCR (reverse transcription polymerase chain reaction) was conducted in order to investigate the effect on the expression of hair-related genes, insulin-like growth factor 1 (IGF-1), hepatocyte growth factor (HGF) and keratinocyte growth factor (KGF). Dermal papilla cells were seeded onto a 100-mm cell culture dish at a density of 80% and then cultured for 24 hours at 37° C. in a 5% CO2 incubator. DMEM (Dulbecco's modified Eagle's medium, BRL, USA) containing 10% bovine serum was used as a medium. After adding 100 μg/mL of a sample (Examples 1-1, 1-2, 1-3 and 1-4; Comparative Examples 1-1, 1-2 and 1-3; Examples 2-1, 2-2 and 2-3) or 1 μg/mL minoxidil as a positive control group, the cells were cultured for 18 hours and RNA was isolated by adding 1 mL of Trizol (Invitrogen, USA) according to the Promega's method. After quantifying RNA at 260 nm using a UV detector, RT-PCR was conducted. The RT-PCR was conducted using a RT-PCR kit (All-in-one RT-PCR kit, SuperBio, Korea) under the condition of 40 cycles of reverse transcription at 50° C. for 30 minutes followed by inactivation of reverse transcriptase at 96° C. for 3 minutes, 94° C. for 30 seconds, 58° C. for 30 seconds and 72° C. for 1 minute. The result was represented as percentage (%) of expression relative to the negative control group (Table 3).

[2] = test system: C57BL/6 mice depilated on the back; assay: Animal experiment for hair growth-promoting effect in depilated mice; format: in vivo, mouse; conditions: 5 wt % minoxidil, 0.2 mL topical once a day
Experimental: The hair growth-promoting effect of the composition of the present disclosure was investigated using C57BL/6 mice. 49- to 51-day-old C57BL/6N mice, in the second […], were depilated completely on the back using wax. While applying 0.2 mL of Example 2-1 or 2-3 at a solid content of 1 wt % or 20 wt %, or 5 wt % minoxidil as a positive control group, diluted in water, once a day for 16 days, hair-growing effect was monitored. Distilled water was used as a negative control group. The hair growth index with time was evaluated by the 3-point scale (see Table 4).

[3] = test system: insulin-like growth factor 1 (IGF-1); assay: RT-PCR expression of hair-related gene IGF-1 in dermal papilla cells; format: cell-based; conditions: 1 μg/mL minoxidil, 18 hours
Experimental: as §1

[4] = test system: hepatocyte growth factor (HGF); assay: RT-PCR expression of hair-related gene HGF in dermal papilla cells; format: cell-based; conditions: 1 μg/mL minoxidil, 18 hours
Experimental: as §1

Nc1cc(N2CCCCC2)nc(N)[n+]1[O-] [Minoxidil, minoxidil]
KGF expression relative to the negative control group [1]: 120.2%**
Hair growth index (3-point scale) ([2]; Day 0): 0 points
Hair growth index (3-point scale) ([2]; Day 12): 1.22 ± 0.26 points
Hair growth index (3-point scale) ([2]; Day 16): 2.66 ± 0.23 points
IGF-1 expression relative to the negative control group [3]: 119.0%**
HGF expression relative to the negative control group [4]: 134.6%**
